Measurements as given in patent publication US20250179103A1, “6-OXODECAHYDROPYRROLO[1,2-A][1,5]DIAZOCINE AND 6-OXODECAHYDRO-4H-PYRROLO[2,1-D][1,5]THIAZOCINE DERIVATIVES AS STAT3 AND STAT6 MODULATORS FOR THE TREATMENT OF CANCER AND INFLAMMATORY CONDITIONS” (Recludix Pharma, Inc., priority 2022, published 2025).

test system: pY641-STAT6 in Peripheral Blood Mononuclear Cells (PBMC); assay: MSD-pSTAT-PBMC Assay (pSTAT6, IL-4 stimulated); format: cell-based, Human; conditions: Homo sapiens, compound 3 hrs, then 1 ng/mL IL-4 for 10 min
Text: Cryopreserved Peripheral Blood Mononuclear Cells (PBMC) are from AllCells. Recombinant Human IL-4 and IL-6 are from Peprotech. Mouse monoclonal anti-STAT3 antibody, rabbit monoclonal anti-pY705-STAT3 antibody, rabbit monoclonal Anti-pY641-STAT6 antibody, and lysis buffer are from Cell Signaling Technology (CST). Mouse monoclonal anti-STAT6 antibody is from BioLegend. Assay plates, blocker, and anti-rabbit secondary antibody are from Meso Scale Discovery (MSD).
Cryopreserved PBMCs were thawed out and allowed to recover overnight in IMDM+10% heat-inactivated FBS prior to plating 50,000 (STAT3) or 25,000 (STAT6) cells per well in 96-well U-bottom tissue culture plates. Cells were treated with compound for 3 hrs, then stimulated with 10 ng/mL IL-6 (STAT3) or 1 ng/mL IL-4 (STAT6) for 10 min. Cells were then spun down and washed with ice-cold PBS prior to lysing the cell pellet with 1× lysis buffer (CST) with 1×HALT protease and phosphatase inhibitor cocktail (Thermo). Lysates were transferred to and incubated overnight at 4° C. with shaking in QuickPlex 96-well high bind assay plates (MSD) pre-coated overnight with 30 μL per well of 0.6 μg/mL mouse monoclonal anti-STAT3 antibody (STAT3) or 2 μg/mL mouse monoclonal anti-STAT6 antibody (STAT6) in 1×PBS, and pre-blocked for 1 hour with 3% Blocker-A (MSD). Captured protein in the assay plates were then washed and probed with 25 μL per well of 0.25 μg/ml rabbit monoclonal anti-pY705-STAT3 antibody (STAT3) or […] rabbit monoclonal Anti-pY641-STAT6 antibody (STAT6) in 1% Blocker-A for 1 hour at room temperature with shaking, then washed and probed with 25 ul per well of 1 ug/ml Sulfo-TAG Labeled Goat Anti-Rabbit Antibody (MSD) in 1% Blocker-A for 1 hour at room temperature with shaking. Assay plates were then washed and 150 μL of 1× Read Buffer-T (MSD) was added to each well prior to reading on an SQ120 MSD Plate Reader. Assay signal from each sample was subtracted by the signal from unstimulated control wells and normalized to DMSO control wells. IC50 values were calculated using Graph Pad Prism Dose-Response Nonlinear Regression with variable slope. For both pSTAT3 and pSTAT6 A=≤100 nM; B=>100-1000 nM; C=>1000-3000 nM; and D=>3 μM.

Structure (SMILES)	IC50
Cc1ccc2onc(C(=O)N3CC[C@H]4CC[C@@H](C(=O)N5C[C@H](c6ccn(C)c(=O)c6)CC56CC6)N4C(=O)[C@@H](NC(=O)c4ccc5ccc(C(F)(F)P(=O)(OCCSC(=O)CC(C)C)OCCSC(=O)CC(C)C)cc5c4)C3)c2c1 [Compound 438, S,S′-((((difluoro(7 (((5S,8S,10aR)-8-((S)-6-(1-methyl-2-oxo-1,2-dihydropyridin-4-yl)-4-azaspiro[2.4]heptane-4-carbonyl)-3-(5-methylbenzo [d]isoxazole-3-carbonyl)-6-oxodeca-hydropyrrolo [1,2-a][1,5]diazocin-5-yl)carbamoyl)naphthalen-2-yl)methyl)phosphoryl)bis (oxy))bis (ethane-2,1-diyl))bis(3-methylbutane thioate)]	≤ 100 nM
Cc1ccc2onc(C(=O)N3CC[C@H]4CC[C@@H](C(=O)N5C[C@@H](C#N)[C@H](c6ccccc6)C5)N4C(=O)[C@@H](NC(=O)c4ccc5ccc(C(F)(F)P(=O)(OCCSC(=O)CC(C)C)OCCSC(=O)CC(C)C)cc5c4)C3)c2c1 (single isomer, unassigned) [Compound 433]	≤ 100 nM
Cc1ccc2onc(C(=O)N3CC[C@H]4CC[C@@H](C(=O)N5C[C@H](c6cc[nH]c(=O)c6)CC56CC6)N4C(=O)[C@@H](NC(=O)c4ccc5ccc(C(F)(F)P(=O)(OCCSC(=O)C(C)(C)C)OCCSC(=O)C(C)(C)C)cc5c4)C3)c2c1 [Compound 434, S,S′-((((difluoro(7 (((5S,8S,10aR)-3-(5-methylbenzo [d]isoxazole-3-carbonyl)-6-oxo-8-((S)-6-(2-oxo-1,2-dihydropyridin-4-yl)-4-azaspiro[2.4]heptane-4-carbonyl)decahydro-pyrrolo [1,2-a][1,5]diazocin-5-yl)carbamoyl)naphthalen-2-yl)methyl)phosphoryl)bis (oxy))bis (ethane-2,1-diyl)) bis(2,2-dimethyl-propanethioate)]	≤ 100 nM
CCCOC(=O)[C@H](C)NP(=O)(Oc1ccccc1)C(F)c1ccc2ccc(C(=O)N[C@H]3CN(C(=O)c4noc5c4CCCC5)CC[C@H]4CC[C@@H](C(=O)N5CCOCC5)N4C3=O)cc2c1 (stereo partly drawn) [Compound 425, propyl ((fluoro(7-(((5S,8S,10aR)-8-(morpholine-4-carbonyl)-6-oxo-3-(4,5,6,7-tetrahydro-benzo[d]isoxazole-3-carbonyl)decahydropyrrolo [1,2-a][1,5]diazocin-5-yl)carbamoyl)naphthalen-2-yl)methyl) (phenoxy)phosphoryl)-L-alaninate]	1000 to 3000 nM
CCCOC(=O)[C@H](C)NP(=O)(Cc1ccc2ccc(C(=O)N[C@H]3CN(C(C)=O)CC[C@H]4CC[C@@H](C(=O)N5CC(c6ccn(C)c(=O)c6)CC56CC6)N4C3=O)cc2c1)Oc1ccccc1 (stereo partly drawn) [Compound 408, propyl (((7-(((5S,8S,10aR)-3-acetyl-8-(6-(1-methyl-2-oxo-1,2-dihydropyridin-4-yl)-4-azaspiro [2.4]heptane-4-carbonyl)-6-oxodeca-hydropyrrolo [1,2-a] [1,5]diazocin-5-yl)carbamoyl)naphthalen-2-yl)methyl) (phenoxy)phosphoryl)-L-alaninate]	1000 to 3000 nM
Cc1ccc2[nH]nc(C(=O)N3CC[C@H]4CC[C@@H](C(=O)N5CC(c6cc[nH]c(=O)c6)CC56CC6)N4C(=O)[C@@H](NC(=O)c4ccc5ccc(C(F)(F)P(=O)(OCCSC(=O)C(C)(C)C)OCCSC(=O)C(C)(C)C)cc5c4)C3)c2c1 (stereo partly drawn) [Compound 432, S,S′-((((difluoro(7 (((5S,8S,10aR)-3-(5-methyl-1H-indazole-3-carbonyl)-6-oxo-8-(6-(2-oxo-1,2-dihydro-pyridin-4-yl)-4-azaspiro [2.4]heptane-4-carbonyl)dec-ahydropyrrolo [1,2a][1,5]diazocin-5-yl)carbamoyl)naphthalen-2-yl)methyl)phosphoryl)bis(oxy))bis (ethane-2,1-diyl))bis(2,2-dimethylpro-panethioate)]	≤ 100 nM
CCCOC(=O)[C@H](C)NP(=O)(Oc1ccccc1)[C@H](F)c1ccc2ccc(C(=O)N[C@H]3CN(C(=O)c4noc5ccc(C)cc45)CC[C@H]4CC[C@@H](C(=O)N5C[C@H](c6ccn(C)c(=O)c6)CC56CC6)N4C3=O)cc2c1 (stereo partly drawn) [Compound 419, propyl (((S)-fluoro(7-(((5S,8S,10aR)-8-((S)-6-(1-methyl-2-oxo-1,2-dihydropyridin-4-yl)-4-azaspiro[2.4]heptane-4-carbonyl)-3-(5-methylbenzo [d]isoxazole-3-carbonyl)-6-oxodeca-hydropyrrolo [1,2-a][1,5]diazocin-5-yl)carbamoyl)naphthalen-2-yl)methyl) (phenoxy)phosphoryl)-L-alaninate]	≤ 100 nM
CCCC(=O)SCCOP(=O)(OCCSC(=O)CCC)C(F)(F)c1ccc2ccc(C(=O)N[C@H]3CN(C(=O)c4noc5ccc(C)cc45)CC[C@H]4CC[C@@H](C(=O)N5C[C@H](c6ccn(C)c(=O)c6)CC56CC6)N4C3=O)cc2c1 [Compound 439, S,S′-((((difluoro(7 (((5S,8S,10aR)-8-((S)-6-(1-methyl-2-oxo-1,2-dihydropyridin-4-yl)-4-azaspiro[2.4]heptane-4-carbonyl)-3-(5-methylbenzo [d]isoxazole-3-carbonyl)-6-oxodeca-hydropyrrolo [1,2-a][1,5]diazocin-5-yl)carbamoyl)naphthalen-2-yl)methyl)phosphoryl)bis (oxy))bis (ethane-2,1-diyl)) dibutanethioate]	≤ 100 nM
CC(=O)N1CC[C@H]2CC[C@@H](C(=O)N3C[C@H](c4cc[nH]c(=O)c4)[C@@H](C#N)C3)N2C(=O)[C@@H](NC(=O)c2ccc3ccc(C(F)(F)P(=O)(OCCSC(=O)CC(C)C)OCOC(=O)OC(C)C)cc3c2)C1 (single isomer, unassigned) [Compound 302, S-(2-((((7-(((5S,8S, 10aR)-3-acetyl-8-((3R,4S or 3S,4R)-3-cyano-4-(2-oxo-1,2-dihydro-pyridin-4-yl)pyrrolidine-1-carbonyl)-6-oxodecahydro-pyrrolo[1,2-a][1,5]diazocin-5-yl)carbamoyl)naphthalen-2-yl)difluoro-methyl)(((iso-propoxy-carbonyl)oxy)methoxy)phos-phoryl)oxy)ethyl)3-methylbutane-thioate]	100 to 1000 nM
CCCOC(=O)[C@H](C)NP(=O)(Oc1ccccc1)C(F)c1ccc2ccc(C(=O)N[C@H]3CN(C(=O)c4noc5ccc(C)cc45)CC[C@H]4CC[C@@H](C(=O)N5C[C@@H]6C[C@H]5CO6)N4C3=O)cc2c1 (stereo partly drawn) [Compound 414, propyl (((7-(((5S,8S,10aR)-8-((1S,4S)-2-oxa-5-azabicyclo [2.2.1]heptane-5-carbonyl)-3-(5-methylbenzo [d]isoxazole-3-carbonyl)-6-oxodeca-hydropyrrolo [1,2-a][1,5]diazocin-5-yl)carbamoyl)naphthalen-2-yl)fluoromethyl) (phenoxy)phosphoryl)-L-alaninate]	≤ 100 nM
CCCOC(=O)[C@H](C)NP(=O)(Oc1ccccc1)C(F)c1ccc2ccc(C(=O)N[C@H]3CN(C(=O)c4noc5ccc(C)cc45)CC[C@H]4CC[C@@H](C(=O)N5CCOC[C@H]5c5ccccc5)N4C3=O)cc2c1 (stereo partly drawn) [Compound 413, propyl ((fluoro(7-(((5S,8S,10aR)-3-(5-methylbenzo [d]isoxazole-3-carbonyl)-6-oxo-8-((R)-3-phenyl-morpholine-4-carbonyl)decahydro-pyrrolo [1,2-a][1,5]diazocin-5-yl)carbamoyl)naphthalen-2-yl)methyl) (phenoxy)phosphoryl)-L-alaninate]	≤ 100 nM
